Assays:
CPAE = assay: Cell proliferation, tritiated thymidine incorporation; type: cell-based, Bovine
Experimental: (§1) The cells were cultured at the rate of 20,000 cells per well (96-well plate, Greiner) in the complete medium. After 24 h, the cells were cultured in a medium containing a concentration lower by half than that corresponding to the complete medium to induce the cell in phase G0/G1 of proliferation for 24 supplementary hours. The cells were then cultured for 30 h with complete medium in the presence or without the presence of AMEP. Tritiated thymidine (1 μCi per well) was then added to the cells and incubated for 18 hours. Incorporation of the tritiated thymidine by the cells was quantified by filter paper according to the protocol described for the use of a Skatron (Skatron, Lier, Norway). Radioactivity was then determined by counting after addition of scintillation liquid. The results were expressed as a percentage in relation to the control.

endothelial cells (CPAE) = assay: Apoptosis and cell cycle by flow cytometry (Hoechst 33342 and annexin V); type: cell-based, bovine
Experimental: Technique of specific vital staining of DNA with Hoechst 33342 (Sigma).
The endothelial cells (CPAE) were trypsinated and the cell suspension was adjusted to 1·10^6 cells/ml. Hoechst 33342 dye was added at the rate of 20 μg/ml and the cells were incubated for three minutes at ambient temperature under agitation. The percentage of apoptotic cells was analyzed by a flow cytometer (FACS). The cells were then incubated for 30 minutes in darkness (37° C.) and analysis of the cell cycle was performed.
Technique using annexin V (R and D system): A residue of 1·10^6 endothelial cells (CPAE) was resuspended in 1 ml of reaction buffer (100 μl of 10× binding buffer (100 mM Hepes/NaOH pH 7.4, 1.5 M NaCl, 50 mM KCl, 10 mM MgCl2, 18 mM CaCl2), 100 μl of propidium iodide (initial concentration 50 μg/ml), 10 μl of annexin V-FITC and 790 μl of deionized water. The suspension was incubated for 15 minutes in darkness at ambient temperature. The percentage of apoptotic cells was analyzed by flow cytometry.

C51 = assay: Cell proliferation, tritiated thymidine incorporation; type: cell-based; conditions: C51, murine cancer cells, mean±SEM
Experimental: as §1

HMVEC = assay: as above; type: cell-based; conditions: human endothelial cells, mean±SEM
Experimental: as §1

MDA-MB-231 = assay: as above; type: cell-based; conditions: MDA-MB-231, human cancer cells, mean±SEM
Experimental: as §1

HMVEC-d = assay: as above; type: cell-based; conditions: human endothelial cells, mean±SEM
Experimental: as §1

[1] = system: MDA MB 231 subcutaneous solid tumors; assay: Quantification of tumoral angiogenesis (CD31 immunohistochemistry and image analysis); type: in vivo, nude mice
Experimental: The tumor tissues were fixed in ethanol. Sections of 5 μm were prepared in paraffin. The endogenous peroxidase was extinguished by 3% of H2O2 for 10 minutes so that the sections could be used in immunohistochemistry. After washing the sections with distilled water then saturation with 1:10 Optimax serum (BioGenex, San Ramon, Calif.) for 10 minutes, the slides were incubated for 1 h with an anti-CD31 rat antibody (endothelial cell adhesion molecule) at 1:50. After two washings with Optimax for 4 minutes, the slides were incubated with an anti-rat goat polyclonal antibody coupled to biotin (1/50) followed by two 4-minute washings with Optimax. The slides were then treated with a DAB chromogenic substrate for 10 minutes, washed with distilled water, counterstained with Mayer's hematoxylin and mounted on Pertex. All of the slides were immunotagged and counterstained on the same day to ensure a standardized intensity of the tagging.
For each animal, a representative histological sample of the sections tagged with CD31 was subjected to image analysis using an AxiophotZeiss microscope (Germany) and a Sony 3CCD camera (resolution 768×576 pixels). Selection of an enlargement×100 allowed digitization of the totality of the sample. […] The images were analyzed with a specific Linux-based program producing a quantitative index from 0 to 255. […]

HMEC-1 cells = assay: Formation of capillary structures in fibrin gel, Cytodex beads model; type: cell-based, human
Experimental: The second model used beads on the order of 150 μm according to the technique described by Nehl et al. The cells used were HMEC-1 since CPAE could not be used in this model. The HMEC-1 cells cannot, however, be employed in the previously described model. The HMEC-1 cells adhere to the Cytodex 3 beads (Sigma) when the cells are incubated with the beads in the complete medium for 4 h at 37° C. The beads were then resuspended in a large volume of complete medium to have 30 cells/beads and agitated for 5 minutes every 30 minutes at 30 rpm for 12 h, followed by a continuous culture at the same rate for 4 days. When the entire surface of the beads was covered by cells, the beads were centrifuged at 800 g for 5 minutes to concentrate and incorporate them in a fibrin gel the same as that described for the preceding model, and the same as the methods of quantification and analysis of the results. In contrast to the model used for the CPAE, the capillary structures only appeared after 3 days of culture at 37° C.

AMEP: disintegrin domain of human metargidin (Met-420 to Glu-511, SEQ ID NO. 2), 91 amino acids, 9.7 kDa; recombinant or expressed in vivo by gene electrotransfer
inhibition of proliferation of endothelial cells (CPAE; 2 μg/ml): 40%
inhibition of proliferation of endothelial cells (CPAE; 5 μg/ml (maximal effect)): 60%
inhibition of proliferation of endothelial cells (CPAE; 10 μg/ml, compared with 60% at 5 μg/ml): identical percentage
% inhibition of cell proliferation by AMEP (5 μg/ml) (CPAE; bovine endothelial cells, 5 μg/ml, mean±SEM): 60.4 ± 3.2%
% of apoptotic cells, Hoechst 33342 method (endothelial cells (CPAE); CPAE, AMEP 5 μg/ml, control 3.9 ± 1.1, mean±SEM): 12.6 ± 3.7%
% of apoptotic cells, Annexin-V method (endothelial cells (CPAE); CPAE, AMEP 5 μg/ml, control 4.6 ± 0.9, mean±SEM): 12.8 ± 2.5%
modification of the cell cycle (endothelial cells (CPAE); Hoechst 33342, not shown): no modification of the cell cycle
percentage of apoptotic cells multiplied by (factor versus control) (endothelial cells (CPAE); both methods (Hoechst 33342, annexin-V)): 3
% inhibition of cell proliferation by AMEP (5 μg/ml) (C51): 0.5 ± 1.1%
% inhibition of cell proliferation by AMEP (5 μg/ml) (HMVEC): 52.6 ± 3.1%
% inhibition of cell proliferation by AMEP (5 μg/ml) (MDA-MB-231): 17.5 ± 0.5%
% inhibition of cell proliferation by AMEP (5 μg/ml) (HMVEC-d): 54.2 ± 2.1%
statistical index of tumor vascularization, Mean ([1]; CD31-tagged tumor sections, index scale 0 to 255, control group 2.96): 1.38
inhibition of the number of vessels within the tumors ([1]; tumors of nude mice treated with AMEP versus control): 53.4%
reduction in the size of the tubes (capillary structures) (HMEC-1 cells; HMEC-1 on beads in fibrin gel, 5 μg/ml, after 10 days): 90%
effect on formation of capillary structures (HMEC-1 cells; HMEC-1 on beads in fibrin gel, 5 μg/ml, after three days of culture): inhibitory effect
formation of capillary structures (HMEC-1 cells; model using HMEC-1, in the presence of AMEP): total inhibition

Reference: patent publication US8207137B2, “Method of inhibiting angiogenesis or invasion or formation of metastases” (INSERM, priority 2001, dated 2012)
